Data reported in ChEMBL document CHEMBL2057164, “Head-to-head prenyl tranferases: anti-infective drug targets” (J Med Chem, 2012).

Assay: Inhibition of Trypanosoma cruzi squalene synthase

Q: With `CC(C)=CCC/C(C)=C/CNCCNC1C2CC3CC(C2)CC1C3` (stereo unspecified) [SQ109] as the compound, how does the Ki read?
A: 1.2 µM
